Experimental data as given in the Kinase Knowledgebase extract (Sharma et al. 2016).
Values joined by “and” are separate entries in the source; they are usually repeats but may differ in a detail not shown here. Equal entries are not always repeated.

How the values were obtained:
[1] = molecular target: PIK3CA (human), P42336 [Antiproliferation of PI3K Mutated BT20 Cells]; experiment: Cell-Based Assay
PIK3CA (human) = PIK3CA (human) (UniProt P42336); experiment: Inhibition of PIK3CA Kinase Activity
Chain of PIK3CA (human) (P42336 whole entry, looked up): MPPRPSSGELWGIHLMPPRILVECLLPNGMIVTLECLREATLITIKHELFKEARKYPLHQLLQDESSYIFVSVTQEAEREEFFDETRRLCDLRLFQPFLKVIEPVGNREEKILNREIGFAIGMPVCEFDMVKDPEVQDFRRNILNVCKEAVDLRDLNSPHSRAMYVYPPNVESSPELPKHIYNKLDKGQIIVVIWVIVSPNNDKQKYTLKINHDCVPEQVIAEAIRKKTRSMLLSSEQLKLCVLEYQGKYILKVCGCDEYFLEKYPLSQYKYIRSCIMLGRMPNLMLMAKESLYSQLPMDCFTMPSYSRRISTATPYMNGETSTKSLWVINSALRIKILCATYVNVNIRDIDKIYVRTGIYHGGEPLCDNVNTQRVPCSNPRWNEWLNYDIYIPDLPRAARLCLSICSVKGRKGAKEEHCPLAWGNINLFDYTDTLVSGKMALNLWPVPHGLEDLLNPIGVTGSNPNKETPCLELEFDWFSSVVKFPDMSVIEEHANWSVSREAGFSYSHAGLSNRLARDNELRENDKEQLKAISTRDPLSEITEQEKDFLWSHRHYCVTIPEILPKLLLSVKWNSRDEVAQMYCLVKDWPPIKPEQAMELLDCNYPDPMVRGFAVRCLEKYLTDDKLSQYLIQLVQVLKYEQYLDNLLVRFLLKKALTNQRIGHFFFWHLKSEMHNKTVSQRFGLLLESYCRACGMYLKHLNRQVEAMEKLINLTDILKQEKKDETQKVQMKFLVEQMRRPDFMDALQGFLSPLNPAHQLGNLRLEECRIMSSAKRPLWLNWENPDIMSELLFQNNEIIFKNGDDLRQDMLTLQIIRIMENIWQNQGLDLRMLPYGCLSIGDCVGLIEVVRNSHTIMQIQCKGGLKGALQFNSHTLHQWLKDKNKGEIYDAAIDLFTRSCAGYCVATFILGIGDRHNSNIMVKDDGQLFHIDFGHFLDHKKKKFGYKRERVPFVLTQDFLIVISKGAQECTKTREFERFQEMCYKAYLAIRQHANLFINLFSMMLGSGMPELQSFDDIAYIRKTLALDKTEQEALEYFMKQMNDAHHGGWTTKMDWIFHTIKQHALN

Chain of PIK3CA (human), P42336 [Antiproliferation of PI3K Mutated BT20 Cells] (P42336 whole entry, looked up, change not shown): as the sequence (P42336 whole entry, looked up) above

Row | Structure (SMILES) | IC50 [1] | IC50 (PIK3CA (human))
1 | CNc1nc(C)c2cc(-c3cnn(C)c3)c(=O)n(C3CCCC3)c2n1 | 314 nM | 39 nM
2 | Cc1nc(N)nc2c1cc(-c1cccnc1N)c(=O)n2C1CCCC1 | 9010 nM | 1430 nM
3 | CNc1nc(C)c2cc(/C=C/O)c(=O)n(C3CCCC3)c2n1 | 896 nM | 42 nM
4 | COc1cccc(-c2cc3c(C)nc(N)nc3n(C3CCCC3)c2=O)c1 | 622 nM | 168 nM
5 | CCNc1nc(C)c2cc(-c3cccc(OC)c3)c(=O)n(C3CCCC3)c2n1 | 1390 nM | 792 nM
6 | Cc1nc(N)nc2c1cc(-c1cnn(CCO)c1)c(=O)n2C1CCCC1 | 495 nM | 45 nM
7 | CNc1nc(C)c2cc(-c3ccc(OC)nc3)c(=O)n(C(C)C)c2n1 | 95.2 nM | 110 nM and 21 nM
8 | Cc1nc(N)nc2c1cc(Br)c(=O)n2[C@H]1CC[C@H](O)CC1 | 305 nM | 44 nM
9 | Cc1nc(N)nc2c1cc(Br)c(=O)n2C1CCOC1 (stereo not given) | 1670 nM | 230 nM
10 | CCNc1nc(C)c2cc(CCCO)c(=O)n(C3CCCC3)c2n1 | 2750 nM | 4 nM
11 | C#Cc1cc2c(C)nc(N)nc2n(C2CCC2)c1=O | 657 nM | 110 nM
12 | Cc1nc(N)nc2c1cc(-c1cn[nH]c1)c(=O)n2[C@H]1CC[C@H](O)CC1 | 169 nM | 6.7 nM
13 | COc1ccc(-c2cc3c(C)nc(N)nc3n(CCN)c2=O)cn1 | 4530 nM | 340 nM
14 | CNc1nc(C)c2cc(-c3ccc(Cl)nc3)c(=O)n(C3CCCC3)c2n1 | 146 nM | 29.7 nM
15 | Cc1nc(N)nc2c1cc(-c1cnc(O)nc1)c(=O)n2C(C)C | 2520 nM | 300 nM
16 | Cc1nc(N)nc2c1cc(-c1cnc3[nH]ccc3c1)c(=O)n2C1CC1 | 138 nM | 17 nM
17 | COc1ccc(-c2cc3c(C)nc(N)nc3n(CCC3CC3)c2=O)cn1 | 94.2 nM | 11 nM
18 | COc1ncccc1-c1cc2c(C)nc(N)nc2n(C2CCCC2)c1=O | 5480 nM | 856 nM
19 | Cc1nc(N)nc2c1cc(Br)c(=O)n2CC1CCCO1 (stereo not given) | 2130 nM | 100 nM

Row | Structure (SMILES) | IC50 [1] | IC50 (PIK3CA (human))
20 | Cc1nc(N)nc2c1cc(Br)c(=O)n2CC1CCOC1 (stereo not given) | 1020 nM | 94 nM
21 | CNc1nc(C)c2cc(-c3cnc(N)c(OC[C@H](C)N)n3)c(=O)n(C3CCCC3)c2n1 | 2330 nM | 400 nM
22 | COc1ccc(-c2cc3c(C)nc(N)nc3n(C3CCNC3)c2=O)cn1 (stereo not given) | 671 nM | 200 nM
23 | Cc1nc(N)nc2c1cc(Br)c(=O)n2[C@H]1CC[C@H](OCCO)CC1 | 96.5 nM | 55.2 nM
24 | Cc1nc(N)nc2c1cc(-c1cnn(CC(C)(C)O)c1)c(=O)n2C1CCCC1 | 101 nM | 89 nM
25 | CNc1nc(C)c2cc(-c3cncnc3)c(=O)n(C3CCCC3)c2n1 | 305 nM | 23 nM
26 | CCNc1nc(C)c2cc(-c3cccnc3N)c(=O)n(C3CCCC3)c2n1 | 7980 nM | 3400 nM
27 | COc1ccc(-c2cc3c(C)nc(N)nc3n(CC3(F)CCOCC3)c2=O)cn1 | 316 nM | 18 nM
28 | Cc1nc(N)nc2c1cc(-c1cccc(Cl)n1)c(=O)n2C1CCCC1 | 3450 nM | 170 nM
29 | COc1ccc(-c2cc3c(C)nc(N)nc3n(CC(F)(F)F)c2=O)cn1 | 262 nM | 130 nM
30 | CCN(CC)C(=O)OCn1cc(-c2cc3c(C)nc(N)nc3n(C(C)C)c2=O)nn1 | 10000 nM | 3300 nM
31 | Cc1nc(N)nc2c1cc(-c1ccc(C#N)nc1)c(=O)n2[C@H]1CC[C@H](O)CC1 | 2690 nM | 470 nM
32 | Cc1nc(N)nc2c1cc(-c1cnc(O)nc1)c(=O)n2C1CCOCC1 | 10000 nM | 810 nM
33 | CNc1nc(C)c2cc(C#N)c(=O)n(C3CCCC3)c2n1 | 603 nM | 60 nM
34 | Cc1nc(N)nc2c1cc(-c1cn[nH]c1)c(=O)n2CC(F)(F)F | 236 nM | 188 nM
35 | Cc1nc(N)nc2c1cc(Br)c(=O)n2C1CCC(=O)CC1 | 211 nM | 110 nM
36 | COc1ccc(-c2cc3c(C)nc(N)nc3n(CC(C)(C)F)c2=O)cn1 | 437 nM | 30 nM
37 | CNc1nc(C)c2cc(-c3cccnc3OC)c(=O)n(C3CCCC3)c2n1 | 3530 nM | 275 nM

Further compounds by falling IC50 [1], results first:

Row | IC50 [1] | IC50 (PIK3CA (human)) | Structure (SMILES)
38 | 93.5 nM | 6.65 nM | COc1ncc(-c2cc3c(C)nc(N)nc3n([C@H]3C[C@H](OCCO)C3)c2=O)cn1
39 | 88.4 nM | 15 nM | COc1ccc(-c2cc3c(C)nc(N)nc3n(CC3CCOCC3)c2=O)cn1
40 | 82.9 nM | 11 nM | COc1ccc(-c2cc3c(C)nc(N)nc3n([C@@H]3CC[C@H](O)C3)c2=O)cn1
41 | 74.2 nM | 39.1 nM | Cc1nc(N)nc2c1cc(-c1ccc(Cl)nc1)c(=O)n2C1CCCC1
42 | 72.2 nM | 5 nM | CNc1nc(C)c2cc(C(=O)Nc3ccon3)c(=O)n(C3CCCC3)c2n1
43 | 71.8 nM | 9.4 nM | Cc1nc(N)nc2c1cc(-c1ccc(OC(C)C)nc1)c(=O)n2[C@H]1CC[C@H](O)CC1
44 | 64 nM | 11 nM | COc1ccc(-c2cc3c(C)nc(N)nc3n(C(C)C)c2=O)cn1
45 | 58.4 nM | 6.3 nM | CNc1nc(C)c2cc(-c3ccc(OC)nc3)c(=O)n(C3CCC3)c2n1
46 | 55.8 nM | 1.2 nM | Cc1nc(N)nc2c1cc(-c1cnc3[nH]ccc3c1)c(=O)n2[C@@H]1CC[C@@H](O)C1
47 | 50.8 nM | 10.2 nM | COc1ccc(-c2cc3c(C)nc(N)nc3n([C@H]3C[C@H](OCCO)C3)c2=O)cn1
48 | 50.5 nM | 1.3 nM | CCn1nccc1NC(=O)c1cc2c(C)nc(N)nc2n([C@H]2CC[C@H](O)CC2)c1=O
49 | 49.3 nM | 2.2 nM | COc1ncc(-c2cc3c(C)nc(N)nc3n(C(C)C)c2=O)cn1
50 | 46.8 nM | 12 nM | COc1ccc(-c2cc3c(C)nc(NCC(F)F)nc3n([C@H]3CC[C@H](O)CC3)c2=O)cn1
51 | 45.9 nM | 15 nM | COc1ccc(-c2cc3c(C)nc(N)nc3n(C3CCCC3)c2=O)cc1F
52 | 41.5 nM | 120 nM | Cc1nc(N)nc2c1cc(-c1cn[nH]c1)c(=O)n2C1CN(C(=O)OC(C)(C)C)C1
53 | 36.6 nM | 5.4 nM | Cc1nc(N)nc2c1cc(-c1cnc3[nH]ccc3c1)c(=O)n2CC1CCCO1 (stereo not given)
54 | 33.9 nM | 20 nM | Cc1nc(N)nc2c1cc(-c1cncc(N)n1)c(=O)n2C1CCCC1
55 | 33.5 nM | 4.72 nM | COc1ccc(-c2cc3c(C)nc(N)nc3n([C@H]3C[C@H](OCC(N)=O)C3)c2=O)cn1
56 | 33.5 nM | 7.58 nM | Cc1nc(N)nc2c1cc(-c1cn[nH]c1)c(=O)n2[C@H]1CC[C@H](OCCO)CC1
57 | 33.2 nM | 3.9 nM | Cc1nc(N)nc2c1cc(-c1cccc(CO)c1)c(=O)n2C1CCOCC1
58 | 31.9 nM | 1.3 nM | Cc1nc(N)nc2c1cc(-c1cnc3[nH]ccc3c1)c(=O)n2[C@H]1CC[C@H](O)CC1
59 | 28.3 nM | 0.59 nM | Cc1nc(N)nc2c1cc(C(=O)Nc1ccn[nH]1)c(=O)n2[C@H]1CC[C@H](O)CC1

Row | IC50 [1] | IC50 (PIK3CA (human)) | Structure (SMILES)
60 | 25.8 nM | 20 nM | Cc1nc(N)nc2c1cc(-c1cn[nH]c1)c(=O)n2C1CCOC1 (stereo not given)
61 | 25.4 nM | 1.6 nM | Cc1nc(N)nc2c1cc(-c1ccc3cc[nH]c3n1)c(=O)n2[C@H]1CC[C@@H](O)CC1
62 | 25.2 nM | 10 nM | Cc1nc(N)nc2c1cc(-c1cc[nH]n1)c(=O)n2[C@H]1CC[C@H](O)CC1
63 | 21.2 nM | 2.7 nM | CCOc1ccc(-c2cc3c(C)nc(N)nc3n([C@H]3CC[C@H](O)CC3)c2=O)cn1
64 | 20.2 nM | 3.1 nM | Cc1nc(N)nc2c1cc(-c1cccc(CO)c1)c(=O)n2C1CCCC1
65 | 19.9 nM | 18.5 nM | Cc1nc(N)nc2c1cc(-c1cn[nH]c1)c(=O)n2C1CCOCC1
66 | 19.3 nM | 4.3 nM | COc1ccc(-c2cc3c(C)nc(N)nc3n(C3CCC(=O)CC3)c2=O)cn1
67 | 17.2 nM | 9.5 nM | CO[C@H]1CC[C@H](n2c(=O)c(-c3cc[nH]n3)cc3c(C)nc(N)nc32)CC1
68 | 15.3 nM | 3.7 nM | Cc1nc(N)nc2c1cc(-c1cnc3[nH]ccc3c1)c(=O)n2C1CCOCC1
69 | 13.5 nM | 1.6 nM | CNc1nc(C)c2cc(-c3cnc4[nH]ccc4c3)c(=O)n(CC3CCOC3)c2n1 (stereo not given)
70 | 13.2 nM | 6.82 nM | COc1ccc(-c2cc3c(C)nc(N)nc3n([C@H]3CC[C@H](OC[C@@H](O)CO)CC3)c2=O)cn1
71 | 12.1 nM | 9.28 nM | Cc1nc(N)nc2c1cc(-c1ccc(N(C)C)nc1)c(=O)n2[C@H]1CC[C@H](OCCO)CC1
72 | 9.57 nM | 2 nM | COc1ncc(-c2cc3c(C)nc(N)nc3n(C3CCCC3)c2=O)cn1
73 | 9.1 nM | 29.7 nM | Cc1nc(N)nc2c1cc(-c1cn[nH]c1)c(=O)n2[C@H]1CC[C@@H](OCCO)CC1
74 | 6.77 nM | 2.3 nM | Cc1nc(N)nc2c1cc(-c1cnc3[nH]ccc3c1)c(=O)n2C(C)C
75 | 5.3 nM | 1.44 nM | COc1ncc(-c2cc3c(C)nc(N)nc3n([C@H]3CC[C@H](OCCO)CC3)c2=O)cc1F
76 | 4.92 nM | 19 nM | Cc1nc(N)nc2c1cc(-c1ccc(N3CCCC3)nc1)c(=O)n2[C@H]1CC[C@H](O)CC1
77 | 4.84 nM | 0.524 nM | Cc1nc(N)nc2c1cc(-c1cccc(O)c1)c(=O)n2C1CCCC1
78 | 3.82 nM | 1.57 nM | CNc1nc(C)c2cc(-c3ccc(O)c(OC)c3)c(=O)n(C3CCCC3)c2n1
79 | 2.76 nM | 0.48 nM | Cc1nc(N)nc2c1cc(-c1cnc3[nH]ccc3c1)c(=O)n2C1CCCC1
80 | 2.58 nM | 8 nM | CNc1nc(C)c2cc(-c3cn[nH]c3)c(=O)n(C3CCCC3)c2n1
